# ChEMBL document CHEMBL5329212, “In situ click chemistry-based discovery of 1,2,3-triazole-derived diarylpyrimidines as novel HIV-1 NNRTIs by exploiting the tolerant region I in binding pocket” (Bioorg Med Chem, 2023)
# Molecular target: Human immunodeficiency virus type 1 reverse transcriptase (Human immunodeficiency virus 1) (UniProt Q72547)
# Assay: Inhibition of HIV-1 reverse transcriptase at 0.267 uM incubated for 1 hrs in presence of biotin-labeled dNTPs by ELISA assay relative to control
row,inhibition,Structure (SMILES)
1,23.4%,Cc1cc(C#N)cc(C)c1Oc1nc(Nc2ccc(-c3cn(CC(=O)Nc4ccc(S(C)(=O)=O)cc4)nn3)cc2)nc2ccsc12
2,23.9%,Cc1cc(C#N)cc(C)c1Oc1nc(Nc2ccc(-c3cn(-c4ccc(C(C)(C)C)cc4)nn3)cc2)nc2ccsc12
3,27.1%,Cc1cc(C#N)cc(C)c1Oc1nc(Nc2ccc(-c3cn(CCc4ccccc4)nn3)cc2)nc2ccsc12
4,1.5%,Cc1cc(C#N)cc(C)c1Oc1nc(Nc2ccc(-c3cn(Cc4ccc5ccccc5c4)nn3)cc2)nc2ccsc12
5,38.2%,Cc1cc(C#N)cc(C)c1Oc1nc(Nc2ccc(-c3cn(-c4ccc(C(=O)O)cc4)nn3)cc2)nc2ccsc12
6,24.9%,Cc1cc(C#N)cc(C)c1Oc1nc(Nc2ccc(-c3cn(C[S+]([O-])c4ccccc4)nn3)cc2)nc2ccsc12 (stereo unspecified)
7,17.3%,Cc1cc(C#N)cc(C)c1Oc1nc(Nc2ccc(-c3cn(-c4ccc(C(=O)O)cc4Cl)nn3)cc2)nc2ccsc12
8,33.3%,Cc1ccccc1Cn1cc(-c2ccc(Nc3nc(Oc4c(C)cc(C#N)cc4C)c4sccc4n3)cc2)nn1
9,34.7%,Cc1cc(C#N)cc(C)c1Oc1nc(Nc2ccc(-c3cn(-c4ccc(CO)cc4)nn3)cc2)nc2ccsc12
10,35.7%,COC(=O)Cn1cc(-c2ccc(Nc3nc(Oc4c(C)cc(C#N)cc4C)c4sccc4n3)cc2)nn1
11,0.9%,Cc1cc(C#N)cc(C)c1Oc1nc(Nc2ccc(-c3cn(Cc4cccc([N+](=O)[O-])c4)nn3)cc2)nc2ccsc12
12,21.8%,Cc1cc(C#N)cc(C)c1Oc1nc(Nc2ccc(-c3cn(CC(=O)N4CCOCC4)nn3)cc2)nc2ccsc12
13,35.9%,Cc1cc(C#N)cc(C)c1Oc1nc(Nc2ccc(-c3cn(Cc4cccc5ccccc45)nn3)cc2)nc2ccsc12
14,0.4%,COc1cccc(Cn2cc(-c3ccc(Nc4nc(Oc5c(C)cc(C#N)cc5C)c5sccc5n4)cc3)nn2)c1
15,24.7%,Cc1cc(C#N)cc(C)c1Oc1nc(Nc2ccc(-c3cn(Cc4cccc(C#N)c4)nn3)cc2)nc2ccsc12
16,24.8%,Cc1cc(C#N)cc(C)c1Oc1nc(Nc2ccc(-c3cn(Cc4ccccc4[N+](=O)[O-])nn3)cc2)nc2ccsc12

row,inhibition,Structure (SMILES)
1,3.5%,Cc1ccc(Cn2cc(-c3ccc(Nc4nc(Oc5c(C)cc(C#N)cc5C)c5sccc5n4)cc3)nn2)cc1
2,23.1%,Cc1cc(C#N)cc(C)c1Oc1nc(Nc2ccc(-c3cn(Cc4ccccc4Cl)nn3)cc2)nc2ccsc12
3,31.9%,Cc1cc(C#N)cc(C)c1Oc1nc(Nc2ccc(-c3cn(CSc4ccccc4)nn3)cc2)nc2ccsc12
4,31.2%,CCOC(=O)Cn1cc(-c2ccc(Nc3nc(Oc4c(C)cc(C#N)cc4C)c4sccc4n3)cc2)nn1
5,4.9%,Cc1cc(C)c(-n2cc(-c3ccc(Nc4nc(Oc5c(C)cc(C#N)cc5C)c5sccc5n4)cc3)nn2)c(C)c1
6,20%,Cc1cc(C#N)cc(C)c1Oc1nc(Nc2ccc(-c3cn(-c4cnc5ccccc5c4)nn3)cc2)nc2ccsc12
7,4.1%,Cc1cc(C#N)cc(C)c1Oc1nc(Nc2ccc(-c3cn(CC(=O)Nc4ccc(Br)cc4)nn3)cc2)nc2ccsc12
8,3.7%,COc1ccccc1Cn1cc(-c2ccc(Nc3nc(Oc4c(C)cc(C#N)cc4C)c4sccc4n3)cc2)nn1
9,1.6%,Cc1cc(C#N)cc(C)c1Oc1nc(Nc2ccc(-c3cn(Cc4ccc([N+](=O)[O-])cc4)nn3)cc2)nc2ccsc12
10,35.3%,COC(=O)CCCn1cc(-c2ccc(Nc3nc(Oc4c(C)cc(C#N)cc4C)c4sccc4n3)cc2)nn1
11,28.4%,Cc1cc(C#N)cc(C)c1Oc1nc(Nc2ccc(-c3cn(Cc4cccc(Cl)c4)nn3)cc2)nc2ccsc12
12,29.7%,Cc1cc(C#N)cc(C)c1Oc1nc(Nc2ccc(-c3cn(CC(=O)NC4CC4)nn3)cc2)nc2ccsc12
13,25.6%,Cc1cc(C#N)cc(C)c1Oc1nc(Nc2ccc(-c3cn(CS(=O)(=O)c4ccccc4)nn3)cc2)nc2ccsc12
14,24.8%,Cc1cc(C#N)cc(C)c1Oc1nc(Nc2ccc(-c3cn([C@H]4C[C@@H](n5cc(C)c(=O)[nH]c5=O)O[C@@H]4CO)nn3)cc2)nc2ccsc12
15,0.2%,Cc1cc(C#N)cc(C)c1Oc1nc(Nc2ccc(-c3cn(Cc4ccccc4C#N)nn3)cc2)nc2ccsc12
